Measurements reported in patent US9433621B2, “Substituted pyridine and pyrimidine derivatives and their use in treating viral infections” (Merck Sharp & Dohme Corp., priority 2010, dated 2016).

Each molecule was assayed on HCV replicon (assay: Cell-Based HCV Replicon Assay). Conditions: Hepatitis C virus, 72 h; Table IV; replicon cells, day 3, real time PCR; EC90 = concentration for ΔCT=3.2 over baseline; read-out: EC90.
Procedure, shortened: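 EC50 and EC90 taken from sigmoid fits of ΔCT (5B minus GAPDH) as the concentrations raising ΔCT by 1 and 3.2 over baseline, via multiplex real-time RT-PCR on lysates after 3 days. Replicon cells at 5000/well; 10 two-fold dilutions from 25–1 μM, 0.5% DMSO, 10% FBS.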

SMILES | EC90 [µM]
COC[C@@H](C)Nc1nc(C)c(-c2nc3c(C)nccc3s2)c(N[C@@H]2C[C@H](C(C)(C)O)[C@@H](O)[C@H]2O)n1 [Example 3137] | 0.118
CCC(O)(CC)[C@H]1C[C@@H](Nc2nc(NCC3CC3)nc(C)c2-c2nc3c(C)nccc3s2)[C@H](O)[C@@H]1O [Example 3182] | 0.068

Same assay, conditions: Hepatitis C virus, 72 h; Table V, class codes; replicon cells, day 3, real time PCR; EC90 = concentration for ΔCT=3.2 over baseline; read-out: EC90 (uM) range

SMILES | EC90 [µM]
Cc1cc2sc(-c3c(C)nc(NCC(F)(F)F)nc3N[C@@H]3C[C@H](CO)[C@@H](O)[C@H]3O)nc2cn1 [Example 4910] | < 0.5
Cc1nc(NCc2cccc(F)c2)nc(N[C@@H]2C[C@H](CO)[C@@H](O)[C@H]2O)c1-c1nc2c(C3CC3)nccc2s1 [Example 4902] | < 0.5
Cc1nccc2sc(-c3cnc(NCCSC(C)(C)C)nc3N[C@@H]3C[C@H](C(C)(C)O)[C@@H](O)[C@H]3O)nc12 [Example 4940] | < 0.5
Cc1nccc2sc(-c3cnc(N)nc3N[C@@H]3C[C@H](C(C)(C)O)[C@@H](O)[C@H]3O)nc12 [Example 4937] | 0.5 to 5
COCCNc1ncc(-c2nc3c(C)nccc3s2)c(N[C@@H]2C[C@H](C(C)(C)O)[C@@H](O)[C@H]2O)n1 [Example 4938] | < 0.5

Same assay, conditions: Hepatitis C virus; HCV Replicon assay, EC90 range, Table VI; read-out: EC90

SMILES | EC90 [µM]
Cc1nc(NCC2CC2)nc(N[C@@H]2C[C@H](C(C)(C)S(C)(=O)=O)[C@@H](O)[C@H]2O)c1-c1nc2c(C)nccc2s1 [Example 5070] | < 0.5
Cc1nc(NCC2CC2)nc(N[C@@H]2C[C@H](NC(=O)N(C)C)[C@@H](O)[C@H]2O)c1-c1nc2c(C3CC3)nccc2s1 [Example 5098] | < 0.5
Cc1nc(NCC2CC2)nc(N[C@@H]2C[C@H](NC(=O)NC(C)(C)C)[C@@H](O)[C@H]2O)c1-c1nc2c(C3CC3)nccc2s1 [Example 5088] | < 0.5
Cc1nc(NCC2CC2)nc(N[C@H]2CCC[C@@H]2O)c1-c1nc2c(C)nccc2s1 [Example 5156] | < 0.5
Cc1nc(NCC(F)(F)C(F)(F)F)nc(N[C@@H]2C[C@H](CS(=O)(=O)c3ccc(F)cc3)[C@@H](O)[C@H]2O)c1-c1nc2c(C3CC3)nccc2s1 [Example 5225] | < 0.5
COC(=O)NC(C)(C)[C@H]1C[C@@H](Nc2nc(NCC3CC3)nc(C)c2-c2nc3c(C)nccc3s2)[C@H](O)[C@@H]1O [Example 5046] | < 0.5
COCCNc1nc(C)c(-c2nc3c(C)nccc3s2)c(N[C@@H]2C[C@H](C(C)(C)NS(C)(=O)=O)[C@@H](O)[C@H]2O)n1 [Example 5036] | < 0.5
COC(C)(C)[C@H]1C[C@@H](Nc2nc(NCc3c(F)cc(F)cc3F)nc(C)c2-c2nc3c(C)nccc3s2)[C@H](O)[C@@H]1O [Example 5277] | < 0.5
Cc1nc(NCC(C)C)nc(N[C@@H]2C[C@H](C(F)F)[C@@H](O)[C@H]2O)c1-c1nc2c(C3CC3)nccc2s1 [Example 5180] | < 0.5
CCC(O)(CC)[C@H]1C[C@@H](Nc2nc(NCCC3CC3)nc(C)c2-c2nc3c(C)nccc3s2)[C@H](O)[C@@H]1O [Example 5269] | 0.5 to 5
Cc1nc(NCC2CC3(CC3)C2)nc(N[C@@H]2C[C@H](CO)[C@@H](O)[C@H]2O)c1-c1nc2c(C3CC3)nccc2s1 [Example 5301] | < 0.5
Cc1nc(NC2CC2)nc(N[C@@H]2C[C@H](C(C)C)[C@@H](O)[C@H]2O)c1-c1nc2c(C)nccc2s1 [Example 5285] | < 0.5
Cc1nc(NCC2CC2)nc(NC2(CO)CCCCC2)c1-c1nc2c(C)nccc2s1 [Example 5199] | < 0.5
COCC(O)(COC)[C@H]1C[C@@H](Nc2nc(NCc3c(F)cc(F)cc3F)nc(C)c2-c2nc3c(C)nccc3s2)[C@H](O)[C@@H]1O [Example 5247] | < 0.5
Cc1nc(NC(C)(C)C)nc(N[C@@H]2C[C@H](NC(=O)NC(C)(C)C)[C@@H](O)[C@H]2O)c1-c1nc2c(C3CC3)nccc2s1 [Example 5091] | < 0.5
CO[C@H]1C[C@H]([C@@H](C)Nc2nc(C)c(-c3nc4c(C)nccc4s3)c(N[C@@H]3C[C@H](CO)[C@@H](O)[C@H]3O)n2)C1 [Example 5302] | < 0.5

SMILES | EC90 [µM]
Cc1nc(NC2(C3CC3)CC2)nc(NC2(CO)CCCC2)c1-c1nc2c(C)nccc2s1 [Example 5121] | < 0.5
COC(=O)NC(C)(C)[C@H]1C[C@@H](Nc2nc(NC[C@@H](C)OC)nc(C)c2-c2nc3c(C)nccc3s2)[C@H](O)[C@@H]1O [Example 5041] | < 0.5
Cc1nc(NC(=N)NCC2CC2)nc(N[C@@H]2C[C@H](C(C)(C)O)[C@@H](O)[C@H]2O)c1-c1nc2c(C)nccc2s1 [Example 5202] | > 25
Cc1nc(NCC2CC2)nc(N[C@@H]2C[C@H](C(C)C)[C@@H](O)[C@H]2O)c1-c1nc2c(C)nccc2s1 [Example 5284] | < 0.5
CCc1nccc2sc(-c3c(C)nc(N)nc3N[C@@H]3C[C@H](CS(=O)(=O)c4ccc(F)c(C)c4)[C@@H](O)[C@H]3O)nc12 [Example 5021] | < 0.5
Cc1nc(N[C@H](C)c2c(F)c(F)c(C)c(F)c2F)nc(N[C@@H]2C[C@H](C(C)(C)O)[C@@H](O)[C@H]2O)c1-c1nc2c(N)nccc2s1 [Example 5028] | < 0.5
COC(C)(C)[C@H]1C[C@@H](Nc2nc(N)nc(C)c2-c2nc3c(C)nccc3s2)[C@H](O)[C@@H]1O [Example 5279] | < 0.5
COCCNc1nc(C)c(-c2nc3c(C)nccc3s2)c(N[C@H]2CCC[C@@H]2O)n1 [Example 5155] | < 0.5
Cc1nc(NC[C@@H](C)OC(C)C)nc(N[C@@H]2C[C@H](C(C)(C)O)[C@@H](O)[C@H]2O)c1-c1nc2c(C)nccc2s1 [Example 5259] | < 0.5
CO[C@H]1CCCC[C@@H]1Nc1nc(C)c(-c2nc3c(C4CC4)nccc3s2)c(N[C@@H]2C[C@H](CO)[C@@H](O)[C@H]2O)n1 [Example 5138] | < 0.5
CCO[C@@H](CNc1nc(C)c(-c2nc3c(C)nccc3s2)c(N[C@@H]2C[C@H](C(C)(C)O)[C@@H](O)[C@H]2O)n1)C(F)(F)F [Example 5235] | < 0.5
COCCNc1nc(C)c(-c2nc3c(C)nccc3s2)c(NC2(CO)CCCCC2)n1 [Example 5200] | < 0.5
CO[C@H]1C[C@@H](CNc2nc(C)c(-c3nc4c(C5CC5)nccc4s3)c(N[C@@H]3C[C@H](CO)[C@@H](O)[C@H]3O)n2)C1 [Example 5292] | < 0.5
COC(C)(C)[C@H]1C[C@@H](Nc2nc(NCC3CC3)nc(C)c2-c2nc3c(C)nccc3s2)[C@H](O)[C@@H]1O [Example 5276] | < 0.5
COc1ccc(S(=O)(=O)C[C@H]2C[C@@H](Nc3nc(NCCSC(C)(C)C)nc(C)c3-c3nc4c(C)nccc4s3)[C@H](O)[C@@H]2O)cc1F [Example 5014] | < 0.5
